# Source: patent US20230339937A1, “CONDENSED RING COMPOUNDS THAT INHIBIT H-PGDS” (SATO PHARMACEUTICAL CO., LTD., priority 2020, published 2023)
# Biological target: T1, Recombinant human H-PGDS (Homo sapiens, UniProt O60760)
# T1 construct: made in house; host or cells: E. coli
# Test: H-PGDS inhibitory activity (prostaglandin D2 production from prostaglandin H2, measured by LC-MS/MS)
# Format: biochemical
# Details: recombinant human H-PGDS 1.0 nM expressed in E. coli; prostaglandin H2 25 μM; preincubated 15 minutes on ice, reacted on ice for 1 minute; concentration that inhibits prostaglandin D2 production by 50%
# How it was run: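 Recombinant human H-PGDS (E. coli-expressed, 1.0 nM final) preincubated with compound 15 min on ice in 20 mM Tris-HCl pH 8.0, 2 mM MgCl2, 2 mM GSH, 0.5 mg/mL γ-globulin. Reaction with 25 µM PGH2 run 1 min on ice, stopped with FeCl2/citric acid, PGD2 quantified by LC-MS/MS. Activity expressed as % of DMSO control after subtracting non-enzymatic PGD2.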
# T1 sequence (O60760 whole entry): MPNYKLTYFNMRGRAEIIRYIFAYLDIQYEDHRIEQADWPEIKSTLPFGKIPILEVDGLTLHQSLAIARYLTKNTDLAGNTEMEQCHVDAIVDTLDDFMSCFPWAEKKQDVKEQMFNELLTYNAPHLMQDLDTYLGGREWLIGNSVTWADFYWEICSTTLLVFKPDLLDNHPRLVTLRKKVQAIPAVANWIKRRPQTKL
row,SMILES,IC50 [nM]
1,"CC(C)(O)[C@H]1CC[C@H](NC(=O)c2ccc(-c3nccc4occc34)c(Cl)c2)CC1 [Example 131, 3-chloro-4-(furo[3,2-c]pyridin-4-yl)-N-[trans-4-(2-hydroxypropan-2-yl)cyclohexyl]benzamide]",26
2,"O=C(NCc1ccncc1)c1ccc(-c2nccc3sccc23)cc1 [Example 60, N-(pyridin-4-ylmethyl)-4-(thieno[3,2-c]pyridin-4-yl)benzamide]",15
3,"O=C(N[C@H]1CC[C@H](C(O)C(F)(F)F)CC1)c1ccc(-c2nccc3occc23)cc1 (stereo partly drawn) [Example 309, 4-(furo[3,2-c]pyridin-4-yl)-N-[trans-4-(2,2,2-trifluoro-1-hydroxyethyl)cyclohexyl]benzamide]",1.9
4,"O=C(NC1CCC2(CC1)COC2)c1ccc(-c2nccc3occc23)cc1 [Example 284, 4-(furo[3,2-c]pyridin-4-yl)-N-(2-oxaspiro[3.5]nonan-7-yl)benzamide]",1.7
5,"O=C(N[C@H]1CC[C@H](N2CC(F)(F)C2)CC1)c1ccc(-c2nccc3occc23)cc1 [Example 304, N-[trans-4-(3,3-difluoroazetidin-1-yl)cyclohexyl]-4-(furo[3,2-c]pyridin-4-yl)benzamide]",9.2
6,"CC(C)(O)[C@H]1CC[C@H](NC(=O)c2ccc(-c3nccc4occc34)c(F)c2)CC1 [Example 125, 3-fluoro-4-(furo[3,2-c]pyridin-4-yl)-N-[trans-4-(2-hydroxypropan-2-yl)cyclohexyl]benzamide]",2.2
7,"C=Cc1cnc(-c2ccc(C(=O)N[C@H]3CC[C@H](C(C)(C)O)CC3)cc2)c2ccoc12 [Example 137, N-[trans-4-(2-hydroxypropan-2-yl)cyclohexyl]-4-(7-vinylfuro[3,2-c]pyridin-4-yl)benzamide]",12
8,"O=C(NC1CC2CCC(C1)C2O)c1ccc(-c2nccc3occc23)cc1 (stereo not drawn) [Example 281, 4-(furo[3,2-c]pyridin-4-yl)-N-(8-hydroxybicyclo[3.2.1]octan-3-yl)benzamide]",2
9,"O=C(NC[C@H]1C[C@H](O)C1)c1ccc(-c2nccc3occc23)cc1 [Example 218, 4-(furo[3,2-c]pyridin-4-yl)-N-[(trans-3-hydroxycyclobutyl)methyl]benzamide]",21
10,"O=C(N[C@H]1CC[C@H](OCC2(O)CC2)CC1)c1ccc(-c2nccc3occc23)cc1 [Example 258, 4-(furo[3,2-c]pyridin-4-yl)-N-{trans-4-[(1-hydroxycyclopropyl)methoxy]cyclohexyl}benzamide]",0.93
11,"Cc1cnc(-c2ccc(C(=O)N[C@H]3CC[C@H](C(C)(C)O)CC3)cc2)c2cc[nH]c12 [Example 339, N-[trans-4-(2-hydroxypropan-2-yl)cyclohexyl]-4-(7-methyl-1H-pyrrolo[3,2-c]pyridin-4-yl)benzamide]",1.4
12,"O=C(N[C@H]1CC[C@H](C(F)F)CC1)c1ccc(-c2nccc3occc23)cc1 [Example 310, N-[trans-4-(difluoromethyl)cyclohexyl]-4-(furo[3,2-c]pyridin-4-yl)benzamide]",2.6
13,"Cc1cc2occc2c(-c2ccc(C(=O)N[C@H]3CC[C@](C)(O)CC3)cc2)n1 [Example 344, N-(trans-4-hydroxy-4-methylcyclohexyl)-4-(6-methylfuro[3,2-c]pyridin-4-yl)benzamide]",1.7
14,"O=C(NCc1ccccc1Cl)c1ccc(-c2nccc3[nH]ccc23)cc1 [Example 56, N-(2-chlorobenzyl)-4-(1H-pyrrolo[3,2-c]pyridin-4-yl)benzamide]",1.7
15,"Cc1cc2c(-c3ccc(C(=O)N[C@H]4CC[C@H](C(C)(C)O)CC4)cc3)nccc2o1 [Example 128, N-[trans-4-(2-hydroxypropan-2-yl)cyclohexyl]-4-(2-methylfuro[3,2-c]pyridin-4-yl)benzamide]",3.5
16,"O=C(N[C@H]1CC[C@H](OCC2(O)CC2)CC1)c1ccc(-c2nccc3occc23)c(F)c1 [Example 347, 3-fluoro-4-(furo[3,2-c]pyridin-4-yl)-N-(trans-4-[(1-hydroxycyclopropyl)methoxy]cyclohexyl)benzamide]",2
17,"O=C(NCc1ccccc1)c1ccc(-c2nccc3[nH]ccc23)cc1 [Example 8, N-benzyl-4-(1H-pyrrolo[3,2-c]pyridin-4-yl)benzamide]",1
18,"O=C(NCc1ccccc1)c1ccc(-c2nccc3sccc23)cc1 [Example 59, N-benzyl-4-(thieno[3,2-c]pyridin-4-yl)benzamide]",9.6
19,"Cn1nnnc1N1CCC(NC(=O)c2ccc(-c3nccc4occc34)c(F)c2)CC1 [Example 323, 3-fluoro-4-(furo[3,2-c]pyridin-4-yl)-N-[1-(1-methyl-1H-tetrazol-5-yl)piperidin-4-yl]benzamide]",1.1
20,"O=C(N[C@H]1CC[C@H](O)CC1)c1ccc(-c2nccc3[nH]ccc23)cc1 [Example 337, N-(trans-4-hydroxycyclohexyl)-4-(1H-pyrrolo[3,2-c]pyridin-4-yl)benzamide]",0.44
21,"O=C(Nc1ccc(N2CCC(C(=O)N3CCOCC3)CC2)c(F)c1)c1ccc(-c2nccc3occc23)cc1 [Example 223, N-{3-fluoro-4-[4-(morpholine-4-carbonyl)piperidin-1-yl]phenyl}-4-(furo[3,2-c]pyridin-4-yl)benzamide]",5.3
22,"O=C(N[C@@H]1C[C@H]2C[C@@H](O)C[C@H]2C1)c1ccc(-c2nccc3occc23)cc1 [Example 282, 4-(furo[3,2-c]pyridin-4-yl)-N-[(2r,3aR,5r,6aS)-5-hydroxyoctahydropentalen-2-yl]benzamide]",1.3
23,"CCC(O)CNC(=O)c1ccc(-c2nccc3occc23)cc1 (stereo not drawn) [Example 91, 4-(furo[3,2-c]pyridin-4-yl)-N-(2-hydroxybutyl) benzamide]",32
24,"O=C(NC1CCc2ccccc21)c1ccc(-c2nccc3occc23)cc1 (stereo not drawn) [Example 97, N-(2,3-dihydro-1H-inden-1-yl)-4-(furo[3,2-c]pyridin-4-yl)benzamide]",2.8
25,"O=C(NC12CC(O)(C1)C2)c1ccc(-c2nccc3occc23)cc1 [Example 278, 4-(furo[3,2-c]pyridin-4-yl)-N-(3-hydroxybicyclo[1.1.1]pentan-1-yl)benzamide]",3.3

# Other lines, results leading:
row,IC50 [nM],SMILES
1,1.1,"CC(C)(O)c1cnc(N2CC[C@H](NC(=O)c3ccc(-c4nccc5occc45)cc3)C2)nc1 [Example 200, (S)-4-(furo[3,2-c]pyridin-4-yl)-N-{1-[5-(2-hydroxypropan-2-yl)pyrimidin-2-yl]pyrrolidin-3-yl}benzamide]"
2,1,"O=C(NC1CCN(c2cc(Cl)ncn2)CC1)c1ccc(-c2nccc3occc23)cc1 [Example 146, N-[1-(6-chloropyrimidin-4-yl)piperidin-4-yl]-4-(furo[3,2-c]pyridin-4-yl)benzamide]"
3,39,"CO[C@H]1CN(c2ncc(CO)cn2)C[C@H]1NC(=O)c1ccc(-c2nccc3occc23)cc1 [Example 206, 4-(furo[3,2-c]pyridin-4-yl)-N-((3R,4S)-1-[5-(hydroxymethyl)pyrimidin-2-yl]-4-methoxypyrrolidin-3-yl)benzamide]"
4,1.7,"CC(C)(O)c1cnc(N2CCC(NC(=O)c3ccc(-c4nccc5occc45)cc3)CC2)nc1 [Example 185, 4-(furo[3,2-c]pyridin-4-yl)-N-{1-[5-(2-hydroxypropan-2-yl)pyrimidin-2-yl]piperidin-4-yl}benzamide]"
5,2,"Cn1ccnc1N1CCC(NC(=O)c2ccc(-c3nccc4occc34)cc2)CC1 [Example 251, 4-(furo[3,2-c]pyridin-4-yl)-N-[1-(1-methyl-1H-imidazol-2-yl)piperidin-4-yl]benzamide]"
6,1.2,"O=C(NC1CCN(C(=O)C2CC2)CC1)c1ccc(-c2nccc3occc23)cc1 [Example 235, N-[1-(cyclopropanecarbonyl)piperidin-4-yl]-4-(furo[3,2-c]pyridin-4-yl)benzamide]"
7,6.1,"O=C(N[C@H]1CCN(c2ccc(CO)cn2)C1)c1ccc(-c2nccc3occc23)cc1 [Example 197, (S)-4-(furo[3,2-c]pyridin-4-yl)-N-{1-[5-(hydroxymethyl)pyridin-2-yl]pyrrolidin-3-yl}benzamide]"
8,1.9,"O=C(N[C@@H]1CN(c2ncc(CO)cn2)C[C@H]1F)c1ccc(-c2nccc3occc23)cc1 [Example 203, N-{(3R,4R)-4-fluoro-1-[5-(hydroxymethyl)pyrimidin-2-yl]pyrrolidin-3-yl}-4-(furo[3,2-c]pyridin-4-yl)benzamide]"
9,2.8,"O=C(N[C@H]1CCCC[C@H]1O)c1ccc(-c2nccc3occc23)cc1 (relative stereo) [Example 273, 4-(furo[3,2-c]pyridin-4-yl)-N-(cis-2-hydroxycyclohexyl)benzamide]"
10,1.9,"COc1ccnc(N2CCC(NC(=O)c3ccc(-c4nccc5occc45)cc3)CC2)n1 [Example 162, 4-(furo[3,2-c]pyridin-4-yl)-N-[1-(4-methoxypyrimidin-2-yl)piperidin-4-yl]benzamide]"
11,3.5,"CC1(C)CC(NC(=O)c2ccc(-c3nccc4occc34)cc2)CCC1O (stereo not drawn) [Example 277, 4-(furo[3,2-c]pyridin-4-yl)-N-(4-hydroxy-3,3-dimethylcyclohexyl)benzamide]"
12,2,"CN(C)c1ccnc(N2CCC(NC(=O)c3ccc(-c4nccc5occc45)cc3)CC2)n1 [Example 161, N-{1-[4-(dimethylamino)pyrimidin-2-yl]piperidin-4-yl}-4-(furo[3,2-c]pyridin-4-yl)benzamide]"
13,1.2,"N#Cc1cnc(N2CC[C@H](NC(=O)c3ccc(-c4nccc5occc45)cc3)C2)nc1 [Example 201, (S)—N-[1-(5-cyanopyrimidin-2-yl)pyrrolidin-3-yl]-4-(furo[3,2-c]pyridin-4-yl)benzamide]"
14,1.3,"O=C(NC1CCN(c2ccnc(Cl)c2)CC1)c1ccc(-c2nccc3occc23)cc1 [Example 165, N-[1-(2-chloropyridin-4-yl)piperidin-4-yl]-4-(furo[3,2-c]pyridin-4-yl)benzamide]"
